Patent US20030167556A1, “Methods and devices for transdermal delivery of anti-aging compounds for treatment and prevention of facial or neck skin aging” (Consumers Choice Systems, Inc., priority 2002, published 2003)

Experiments:
[1] = intraduodenal, rats, with 1% (w/v) saline dispersion of polycarbophil; cited from earlier work
[2] = test system: peri-orbital skin; test: Quantitative microtopography of skin casts, depth of deep wrinkles (photoaging); type: in vivo, human
Description: A significant adverse symptom of photoaging is the presence of deep wrinkles. […] In one exemplary protocol, an orbital patch containing CoQ10 in a delivery vehicle or carrier as described above is applied to one eye of a subject, and a control orbital patch containing a delivery vehicle alone is applied around the other eye. Casts are then prepared for quantitative microtopography [see, e.g., Hoppe, et al., J. Soc. Cosmetic Chemists 36: 105-123 (1985), incorporated herein by reference]. Photographs of the skin before treatment show deep wrinkles, which are characteristic of photoaging, whereas fine wrinkles are associated with chronological aging. Using microtopography to measure a reduction in the depth of wrinkles in aged skin, two important parameters can be calculated from the microtopography. They are: Rt which is the mean peak to valley measurement of a defined unit distance, and Rq which is the integrated area of the peaks and troughs. These measurements indicate the variation of the microtopography from a flat surface. […] In certain examples, treatment with an orbital patch containing 0.3% CoQ10 will results in at least a 25% reduction in the mean peak to valley depth of the skin and at least a 25% reduction in the Rq value, compared to controls.

[3] = test system: facial skin; test: Corneocyte surface area (senile xerosis) after facial patch or mask treatment; type: in vivo; settings: patch or mask containing 0.3% CoQ10, once or twice daily for 7 days, vs delivery vehicle or carrier alone
Excerpt: Although the stratum corneum, the outermost layer of the epidermis, is continuously sloughed off and replaced in healthy individuals, it will display symptoms of aging in the underlying living cells in older subjects. The area of corneocytes, which make up the stratum corneum, is proportional to the time taken for the keratinocyte to differentiate and move from the basal layer to the stratum corneum. In aged skin, the time taken to move through the epidermis increases, and corneocytes become larger. The surface can develop fine lines and become dry and scaly (senile xerosis). As aging progresses, the surface area of corneocytes increases, and thus this value can be measured to determine the effectiveness of an anti-aging treatment (i.e., to decrease the transit time and corneocyte surface area).

[4] = test system: human skin; test: Ultra weak photon emission (UPE) assay of skin after UVA irradiation; type: in vivo; settings: orbital patch with 0.3% CoQ10 once or twice daily for 7 days, 50 mJ/cm^2 UVA, vs delivery vehicle alone
Excerpt: Oxidative events in human skin in vivo following delivery of CoQ10 via a facial patch or mask of the invention are detected, for example, by means of ultra weak photon emission assay [Sauermann et al., Oxidants & Antioxidants, Methods in Enzymology, L. Packer, ed., Academic Press, 300: 419-428 (1999), incorporated herein by reference]. In the basal state, cells emit low levels of photons. When UVA irradiation is applied there is an excited state with a large increase in the level of photons that decay with time. The level of photons emitted is an indication of the antioxidant status of the skin. If there is an increase in antioxidants, the excitation is less and the level of photons emitted will be reduced. The ultra weak photon emission (UPE) is measured after UVA irradiation in two age groups: (1) aged 18-25 years, (2) aged 60-72 years.

[5] = orbital patch containing 0.3% CoQ10, compared to controls

Row | Molecule | increase in bioavailability compared to aqueous solution without polymer [1] | reduction in the Rq value [2, 5] | reduction in the mean peak to valley depth of the skin (Rt) [2, 5] | depth of deep wrinkles ([2]; patch containing 0.3% CoQ10 once daily, at least 2 hours each day, one week to six months, vs vehicle control) | corneocyte area over time [3] | levels of UPE compared to control level [4]
1 | 9-desglycinamide, 8-arginine vasopressin [DGAVP] | 3-5 fold |  |  |  |  | 
2 | COC1=C(OC)C(=O)C(C/C=C(\C)CC/C=C(\C)CC/C=C(\C)CC/C=C(\C)CC/C=C(\C)CC/C=C(\C)CC/C=C(\C)CC/C=C(\C)CC/C=C(\C)CCC=C(C)C)=C(C)C1=O [CoQ10, CoEnzyme Q10] |  | ≥ 25% | ≥ 25% | significantly reduced | significant decrease | significantly lower levels
